The test system of one series is LNCaP. Briefly: MTT cytotoxicity assay, LNCaP prostate cancer cells. It is filed as cell-based, human. To be noted: Homo sapiens, read-out: Growth Inhibition %; for inhibition at 25 µM: 2.5 × 10^−5 M; for inhibition at 2.5 µM: 2.5 × 10^−6 M; for inhibition at 0.25 µM: 2.5 × 10^−7 M. The protocol: The human prostate cancer LNCaP, PC-3, and DU-145 cell lines, as well as human fibroblast cell line, were obtained from the American Type Culture Collection (“ATCC”) and maintained in RPMI-1640, F-12k, and MEM mediums, respectively, supplemented with 10% FBS. Cell lines were maintained at 37° C. under a humidified atmosphere and 5% CO2 for testing of the cytotoxicity of betulinol derivatives. The cytotoxicity assay was performed using MTT assay according to the instructions of ATCC protocol. Cells 1×10^5 in 0.1 ml/well were plated in 96-well culture plates (Costar) and incubated with a different dilution of betulinol derivatives for 24, 48, and 72 hours. Ten μl of 3-[4,5-dimethylthiazol-2-yl]-2,5 diphenyl tetrazolium bromide was added into each well at the end of each incubation period. The reaction product, formazan, was dissolved in the detergent, and the absorbance was read at 540 nm (Ref).
However, these compounds were not tested on prostate cancer LNCaP cell line by NCI. […] The anti-tumor activity of the compounds was determined at three doses and the total growth inhibition kill effect as pertinent of the control at 24, 48, and 72 hours as presented in Table 11.
In general terms: Tetrazolium dyes change colour on reduction, which living cells bring about.

Another series relates to 184B5/HER. Briefly: In vitro cytotoxicity, Breast (1), 184B5/HER. It is filed as cell-based. To be noted: 1 × 10^−4 M.
Series [1] is described as follows: Solubility in DMSO diluted with culture medium (GC standard curve). Particulars: for State of solution: 0.5 mg/mL BA. As for the experimental part:
The residue was dissolved in chloroform analyzed on GC.
Ethyl ether was then evaporated. […] Concentration of drug in the above solutions was analyzed by GC and determined from the standard solubility curve.

The nature of series [2]: Solubilization in PBS containing human γ-globulin, human albumin and ethanol. To be noted: 1 × 10^−3 mol/L. An excerpt:
Human γ-Globulin and human albumin are two major biocompatible components in human serum.

Another series concerns LNCaP xenografts. Details: species or system athymic mice. To be noted: mouse, in vivo. As for the experimental part: All the animal studies were performed according to the guidelines and approval of the Institutional Animal Care and Use Committee and Research Animal Resource Center of Weill Medical College of Cornell University, New York. Twelve mice of 13 weeks of age were purchased from The National Cancer Institute (NCI) and were housed in a pathogen-free environment under controlled conditions of light and humidity and with free access to food and water. LNCaP cells were grown in RPMI-1640 with 10% FBS until 80-90% confluent. Cells were scraped into PBS and collected by centrifugation. The LNCAP cell pellets were suspended in Matrigel (Ref) at 2.5×10^7 cells/ml. Mice were injected subcutaneously (“s.c.”) with 200 μl (5×10^6 cells) of the cell suspension at one site on the flank. Visible tumor grew after 7-8 days following implantation and mice were divided into three groups of four mice each.
Mice received s.c. injection daily for ten days. […] Tumors were measured daily with calipers, and tumor volumes were calculated by the formula: π/6(l×w×h). Animals were also weighed daily and monitored for general health status and vital signs of possible toxicity due to treatment. At the end of the treatment period, the animals were sacrificed and tumors were excised, weighed and prepared for immunohistochemical and histological studies. […]

The conditions of series [3]: 1.34 mg in 31 μL ethanol + 700 μL human serum.

Like-named read-outs stand apart in the source and are kept apart here.

As usually defined, the inhibition is the drop in the measured response relative to a control, in per cent. For the compound `C=C(C)C1CCC2(C(=O)O)CC[C@]3(C)[C@H](CC[C@@H]4[C@@]5(C)CCC(=O)C(C)(C)[C@@H]5CC[C@]43C)C12` (stereo partly drawn) [Compound 4, Betulonic Acid], the inhibition at 25 µM in the series with LNCaP (24 hours) stood at 11.4%; with LNCaP (48 hours), 32.6%. Also, the inhibition at 2.5 µM in the series with LNCaP (24 hours) is 14.7%; in the series on LNCaP (48 hours), 43%. In addition, the inhibition at 0.25 µM with LNCaP (24 hours) stood at 3.01%; in the series on LNCaP (48 hours), 28.3%. In the series with 184B5/HER, the “Percent Killed” value is given as “Toxic”. For the same compound, the State of solution entry is reported as “Suspension” in series [1] (3% DMSO in culture medium); “Suspension” in series [1] (9% DMSO in culture medium); “Cloudy” in series [1] (14% DMSO in culture medium); “clear solution” in series [1] (20% DMSO in culture medium); “Clear” in series [1] (20% DMSO in culture medium, listed as BA). The “amount of betulonic acid dissolved” value in series [1] (out of 3 mg, 1% DMSO in culture medium containing 10% FBS, supernatant after centrifugation) was determined as 0.4 mg. The Observation result is given as “Cloudy” in series [2] (ethanol 220 μL, γ-globulin 1.48 mL, albumin 0.49 mL); “Complete” in series [2] (ethanol 280 μL, γ-globulin 0 mL, albumin 2.50 mL); “Suspension” in series [2] (ethanol 280 μL, γ-globulin (27 mg/mL in PBS) 2.50 mL, albumin (42 mg/mL in PBS) 0 mL); “Almost Clear” in series [2] (ethanol 308 μL, γ-globulin 0.69 mL, albumin 2.07 mL); “Little Cloudy” in series [2] (ethanol 330 μL, γ-globulin 1.48 mL, albumin 1.48 mL); “Clear” in series [2] (ethanol 352 μL, γ-globulin 0.32 mL, albumin 2.85 mL). The Observation result in series [3] is recorded as “Clear Solution”. For the same compound, the “general health and vital signs during treatment” value in the series with LNCaP xenografts is on record as “no adverse effects on vital signs”.

The values are drawn from patent US8088757B2, “Betulinol derivatives as anti-cancer agents” (priority 2004, dated 2012).
